{"source": "patent EP4699605A1", "about": "“USE OF NOVEL COMPOUND FOR TREATING INTRACTABLE DISEASES” (YJ Cerapeutics Inc., priority 2023, dated 2024)", "key": {"[1]": {"tested_on": "IMQ psoriasis animal model", "assay": "Spleen hypertrophy in IMQ psoriasis animal model", "assay_type": "in vivo, C57BL/6 mouse", "details": "Day 6, vs Vehicle group", "description": "(§1) Psoriasis caused by excessive production of skin cells was a chronic skin disease associated with various factors, including autoimmune diseases, and its symptoms included red and thickened skin and abnormally occurring scaling. […] Specifically, the back region of a C57BL/6 mouse (male, 18 to 20 g, 8 weeks) (Daehan Biolink, Eumseong, Korea) was shaved to remove hair, and then applied with IMQ cream (83 mg/day) (5%) for consecutive 5 days from Day 0 to Day 4 to induce psoriasis-like skin inflammation, and a normal control mouse (Sham) was applied with Vaseline cream (FIG. 16A).\nThe spleen hypertrophy occurred in mice induced with psoriasis, the longitudinal diameter of the spleen in psoriasis patients was increased compared to that of non-psoriasis patients, and a correlation between the disease duration and the spleen diameter was reported. Therefore, on Day 6, the spleen of the mouse in each group was extracted and weighed to determine the degree of spleen hypertrophy."}, "microglia": {"tested_on": "microglia", "assay": "Microglial activation in spinal cord of SNI model (OX-42 staining, p-p38MAPK Western blot)", "assay_type": "in vivo, Sprague-Dawley rats", "description": "(§2) To be used as a peripheral nerve injury animal model, a sciatic nerve injury (SNI) model was prepared (FIG. 1C). Specifically, 200 to 220 g of male adult Sprague-Dawley rats were anesthetized by intraperitoneal injection of chloral hydrate (500 mg/kg), and then three terminal branches (tibial, common peroneal, and sural nerves) of the right sciatic nerve were approached, and the tibia nerve and the peroneal nerve were tightly ligated with 4-0 silk, and neurectomy was performed at a distal 3 mm position of the ligation site. At this time, a Sham group was a group that exposed only the sciatic nerve without damage.\nTo analyze the activation of microglia in the spinal cord, which were known to play an important role in the induction/persistence of neuropathic pain, 4 weeks after nerve injury in the SNI animal model, the spinal cord of 4 and 5 lumbar vertebrae was stained with OX-42 to confirm changes in cell shape and intensity. […] The supernatant was transferred to a new microcentrifuge, the protein concentration was measured using a BCA kit, and samples for Western blot were prepared by adding a 1X sample buffer and boiling for 5 minutes. […]"}, "astrocytes": {"tested_on": "astrocytes", "assay": "Astrocyte activation in spinal cord of SNI model (GFAP immunohistochemistry and Western blot)", "assay_type": "in vivo, Sprague-Dawley rats", "details": "L4-5 spinal cord", "description": "as §2\nThe activation of astrocytes in the spinal cord, known to play an important role in the process of inducing/persisting neuropathic pain, was confirmed by immunohistochemical staining and Western blot analysis using an anti-GFAP antibody against an intermediate filament protein, Glial fibrillary acidic protein (GFAP) of astrocytes, a marker of astrocyte activation, as in Example 3-1."}, "[2]": {"tested_on": "neutrophils and macrophages", "assay": "Introduction of neutrophils and macrophages into the bladder after SCI (immunofluorescence)", "assay_type": "in vivo, Sprague-Dawley rats", "excerpt": "When bladder dysfunction occurred due to spinal cord injury, cystitis, etc., a decrease in tight junction protein in the urothelium in contact with urine occurred, which increased the permeability of the bladder wall to introduce the harmful substances into the tissue, and caused the death of the urothelium serving as a barrier, and an increase in inflammatory response in the bladder. In order to determine what effect the compound YJ102 of the present disclosure had on these pathological processes, the expression of tight junction proteins ZO-1 and occludin was confirmed by Western blot analysis and immunofluorescence staining, and the introduction of neutrophils and macrophages into the bladder was confirmed by immunofluorescence staining. Specifically, the cut bladder tissue sections were frozen in liquid nitrogen, ground in a mortar and pestle to be completely lysed, and homogenized by adding Lysis Buffer [50 mM Tris-HCl (pH 7.4), 150 mM NaCl, 2 mM MgCl2, 0.1% NP40]. The homogenized tissue sections were transferred to a microcentrifuge tube, rock at 4°C for 20 minutes, and then centrifuged at 25,000 × g for 10 minutes. The supernatant was transferred to a new microcentrifuge, the protein concentrations were measured using a BCA kit, and then samples for Western blot were prepared by adding a 1X sample buffer and boiling for 5 minutes. […]"}, "[3]": {"tested_on": "IMQ psoriasis animal model", "assay": "PASI scores (erythema, scaling) in IMQ psoriasis animal model", "assay_type": "in vivo, C57BL/6 mouse", "details": "5 mg/kg intraperitoneally on Day 2, Day 3, Day 4, vs Vehicle group", "description": "as §1\nIn order to confirm the effect of YJ102 (Chemical Formula 1), a compound of the present disclosure, on psoriasis, YJ102 dissolved in DMSO, methyl pyrrolidinone, and water (1 : 1.5 : 1) was administered intraperitoneally (5 mg/kg) for a total of 3 days on Day 2, Day 3, and Day 4, and the Vehicle group was administered in the same amount of a solution of DMSO, methyl pyrrolidinone, and water (1 : 1.5 : 1) (FIG. 16A). To assess daily skin changes, PASI scores were used for erythema and scaling. The PASI score was evaluated as a severity scale of 0 to 4, in which 0 meant none, 1 meant mild, 2 meant moderate, 3 meant severe, and 4 meant very severe. (PASI Reference: Yashpal Manchanda, Abhishek De, Sudip Das, and Disha Chakraborty. Disease Assessment in Psoriasis. Indian J Dermatol. 2023 May-Jun; 68 (3): 278-281.)"}}, "data": [{"smiles": "CCc1ccc(N(C(=O)COC)c2nc3cc(Cl)ccc3o2)cc1", "note": "[YJ102]", "values": [{"measurement": "size of the spleen", "setting": "[1]", "result": "significantly reduced"}, {"measurement": "weight of the spleen", "setting": "[1]", "result": "significantly reduced"}, {"measurement": "microglia activation changes (OX-42 intensity, activated morphology)", "setting": "microglia; 4 weeks after nerve injury, L4-L5 spinal cord, vs Vehicle", "result": "significantly reduced"}, {"measurement": "amount of p-p38MAPK", "setting": "microglia; spinal cord, Western blot", "result": "significantly reduced"}, {"measurement": "GFAP expression intensity", "setting": "astrocytes", "result": "significantly decreased"}, {"measurement": "introduction of MPO-positive neutrophils into the bladder", "setting": "[2]; after spinal cord injury (day 1)", "result": "significantly inhibited"}, {"measurement": "introduction of ED-1-positive macrophages into the bladder", "setting": "[2]; after spinal cord injury (day 7)", "result": "significantly inhibited"}, {"measurement": "degree of erythema (PASI score)", "setting": "[3]", "result": "significantly lower"}, {"measurement": "degree of scaling (PASI score)", "setting": "[3]", "result": "significantly lower"}]}]}
